Patent US20100029619A1, “FUSED HETEROCYCLIC COMPOUND” (TAKEDA PHARMACEUTICAL COMPANY LIMTED, priority 2006, published 2010)
Structures can show the parent of a compound that is named as a salt.

Compound | melting point
CN(C)c1ccc2nc(NC(=O)c3ccc(C(C)(C)C)cc3)cn2n1.Cl | 259 to 260 °C
CC(C)(C)c1ccc(C(=O)Nc2cn3nc(N)ccc3n2)cc1.Cl | 312 to 313 °C
CC(C)c1ncc(-c2ccc3nc(NC(=O)c4ccc(C(C)(C)C)cc4)cn3n2)[nH]1.Cl | 304 to 305 °C (dec.)
Cc1cccc2nc(NC(=O)c3ccc(C(C)(C)C)cc3)cn12.Cl | 204 to 205 °C
CC(C)(C)c1ccc(C(=O)Nc2cn3c4c(ccc3n2)OCC4)cn1 (as salt: hydrochloride) [Example 18, 6-tert-butyl-N-(1,2-dihydrofuro[2,3-e]imidazo[1,2-a]pyridin-7-yl)nicotinamide dihydrochloride] | 199 to 200 °C
Cc1ncc(-c2ccc3nc(NC(=O)c4ccc(C(C)(C)C)cc4)cn3n2)[nH]1 (as salt: hydrochloride) [Example 156, 4-tert-butyl-N-[6-(2-methyl-1H-imidazol-5-yl)imidazo[1,2-b]pyridazin-2-yl]benzamide hydrochloride] | 295 to 297 °C (dec.)
CC(C)(C)c1ccc(C(=O)Nc2cn3nc(N4CCCC4)ccc3n2)cc1.Cl (hydrate or solvate) | 257 to 259 °C
CC(C)(C)c1ccc(C(=O)Nc2cn3c4c(ccc3n2)OCC4)cc1 [Example 14, 4-tert-butyl-N-(1,2-dihydrofuro[2,3-e]imidazo[1,2-a]pyridin-7-yl)benzamide] | 266 to 268 °C
COC(=O)C(C)(C)c1ccc(C(=O)Nc2cn3c4c(ccc3n2)OCC4)cc1 [Example 15, methyl 2-[4-(1,2-dihydrofuro[2,3-e]imidazo[1,2-a]pyridin-7-ylcarbamoyl)phenyl]-2-methylpropanoate] | 235 to 237 °C
CC(C)(C(=O)O)c1ccc(C(=O)Nc2cn3c4c(ccc3n2)OCC4)cc1 [Example 16, 2-[4-(1,2-dihydrofuro[2,3-e]imidazo[1,2-a]pyridin-7-ylcarbamoyl)phenyl]-2-methylpropanoic acid] | 293 to 295 °C
CC(C)(C)c1ccc(C(=O)Nc2cn3c4c(ccc3n2)OCC4)cn1 [Example 17, 6-tert-butyl-N-(1,2-dihydrofuro[2,3-e]imidazo[1,2-a]pyridin-7-yl)nicotinamide] | 246 to 248 °C
COC(=O)C(C)(C)c1ccc(C(=O)Nc2cn3cc(C)ccc3n2)cc1 [Example 19, methyl 2-methyl-2-{4-[(6-methylimidazo[1,2-a]pyridin-2-yl)carbamoyl]phenyl}propanoate] | 228 to 230 °C
COC(=O)C(C)(C)c1ccc(C(=O)Nc2cn3cc(-c4ccsc4)ccc3n2)cc1 [Example 24, methyl 2-methyl-2-(4-{[6-(3-thienyl)imidazo[1,2-a]pyridin-2-yl]carbamoyl}phenyl)propanoate] | 200 to 201 °C
CC(C)(C(=O)O)c1ccc(C(=O)Nc2cn3cc(-c4ccsc4)ccc3n2)cc1 [Example 25, 2-methyl-2-(4-{[6-(3-thienyl)imidazo[1,2-a]pyridin-2-yl]carbamoyl}phenyl)propanoic acid] | 304 to 306 °C
CC(C)(C(=O)O)c1ccc(C(=O)Nc2cn3cc(-c4cn[nH]c4)ccc3n2)cc1 [Example 29, 2-methyl-2-(4-{[6-(1H-pyrazol-4-yl)imidazo[1,2-a]pyridin-2-yl]carbamoyl}phenyl)propanoic acid] | 306 to 307 °C
COC(=O)C(C)(C)c1ccc(C(=O)Nc2cn3cc(Cl)ccc3n2)cc1 [Example 30, methyl 2-{4-[(6-chloroimidazo[1,2-a]pyridin-2-yl)carbamoyl]phenyl}-2-methylpropanoate] | 245 to 246 °C
CC(C)(C(=O)NO)c1ccc(C(=O)Nc2cn3cc(Cl)ccc3n2)cc1 [Example 33, N-(6-chloroimidazo[1,2-a]pyridin-2-yl)-4-[2-(hydroxyamino)-1,1-dimethyl-2-oxoethyl]benzamide] | 212 to 213 °C
CC(C)(c1ccc(C(=O)Nc2cn3cc(Cl)ccc3n2)cc1)c1nnn[nH]1 [Example 39, N-(6-chloroimidazo[1,2-a]pyridin-2-yl)-4-[1-methyl-1-(1H-tetrazol-5-yl)ethyl]benzamide] | 266 to 267 °C
CC(C)(c1ccc(C(=O)Nc2cn3cc(Cl)ccc3n2)cc1)c1noc(=O)[nH]1 [Example 40, N-(6-chloroimidazo[1,2-a]pyridin-2-yl)-4-[1-methyl-1-(5-oxo-4,5-dihydro-1,2,4-oxadiazol-3-yl)ethyl]benzamide] | 310 to 312 °C
CC(C)(C)c1ccc(C(=O)Nc2cn3c(ccc4ccccc43)n2)cc1 [Example 50, 4-tert-butyl-N-(imidazo[1,2-a]quinolin-3-yl)benzamide] | 204 to 205 °C
Cc1c(NC(=O)c2ccc(C(C)(C)C)cc2)nc2ccc(Cl)nn12 [Example 55, 4-tert-butyl-N-(6-chloro-3-methylimidazo[1,2-b]pyridazin-2-yl)benzamide] | 269 to 270 °C
Cc1c(NC(=O)c2ccc(C(C)(C)C)cc2)nc2ccc(-n3ccnc3)nn12 [Example 56, 4-tert-butyl-N-[6-(1H-imidazol-1-yl)-3-methylimidazo[1,2-b]pyridazin-2-yl]benzamide] | 302 to 303 °C

Further lines, results first:

melting point | Compound
> 400 °C | O=C([O-])c1ccc(C(=O)Nc2cn3cc(-n4ccnc4)ccc3n2)cc1.[K+]
298 to 300 °C | CC(C)(C)c1ccc(C(=O)Nc2cn3nc(-n4ccnc4)ccc3n2)cc1 (as salt: hydrochloride) [Example 141, 4-tert-butyl-N-[6-(1H-imidazol-1-yl)imidazo[1,2-b]pyridazin-2-yl]benzamide dihydrochloride]
275 to 277 °C | Cc1ccc2nc(NC(=O)c3ccc(C(C)(C)C(=O)O)cc3)cn2c1 [Example 20]
152 to 154 °C | CCOC(=O)CCC(C)(C)c1ccc(C(=O)Nc2cn3cc(C)ccc3n2)cc1 [Example 21, ethyl 4-methyl-4-{4-[(6-methylimidazo[1,2-a]pyridin-2-yl)carbamoyl]phenyl}pentanoate]
280 to 282 °C | Cc1ccc2nc(NC(=O)c3ccc(C(C)(C)CCC(=O)O)cc3)cn2c1 [Example 22, 4-methyl-4-{4-[(6-methylimidazo[1,2-a]pyridin-2-yl)carbamoyl]phenyl}pentanoic acid]
234 to 235 °C | COC(=O)C(C)(C)c1ccc(C(=O)Nc2cn3cc(I)ccc3n2)cc1 [Example 23, methyl 2-{4-[(6-iodoimidazo[1,2-a]pyridin-2-yl)carbamoyl]phenyl}-2-methylpropanoate]
202 to 203 °C | COC(=O)C(C)(C)c1ccc(C(=O)Nc2cn3cc(-c4ccoc4)ccc3n2)cc1 [Example 26, methyl 2-methyl-2-(4-{[6-(3-furyl)imidazo[1,2-a]pyridin-2-yl]carbamoyl}phenyl)propanoate]
307 to 309 °C | CC(C)(C(=O)O)c1ccc(C(=O)Nc2cn3cc(-c4ccoc4)ccc3n2)cc1 [Example 27, 2-methyl-2-(4-{[6-(3-furyl)imidazo[1,2-a]pyridin-2-yl]carbamoyl}phenyl)propanoic acid]
311 to 313 °C | CC(C)(C(=O)O)c1ccc(C(=O)Nc2cn3cc(Cl)ccc3n2)cc1 [Example 31, 2-{4-[(6-chloroimidazo[1,2-a]pyridin-2-yl)carbamoyl]phenyl}-2-methylpropanoic acid]
198 to 199 °C | CC(C)(CCC#N)c1ccc(C(=O)Nc2cn3cc(Cl)ccc3n2)cc1 [Example 32, N-(6-chloroimidazo[1,2-a]pyridin-2-yl)-4-(3-cyano-1,1-dimethylpropyl)benzamide]
268 to 269 °C | CC(C)(C(=O)NCC#N)c1ccc(C(=O)Nc2cn3cc(Cl)ccc3n2)cc1 [Example 34, N-(6-chloroimidazo[1,2-a]pyridin-2-yl)-4-{2-[(cyanomethyl)amino]-cyano-1,1-dimethyl-2-oxoethyl}benzamide]
208 to 209 °C | CC(C)(C(=O)NCCC#N)c1ccc(C(=O)Nc2cn3cc(Cl)ccc3n2)cc1 [Example 35, N-(6-chloroimidazo[1,2-a]pyridin-2-yl)-4-{2-[(2-cyanoethyl)amino]-1,1-dimethyl-2-oxoethyl}benzamide]
250 to 251 °C | CC(C)(CCc1nnn[nH]1)c1ccc(C(=O)Nc2cn3cc(Cl)ccc3n2)cc1 [Example 36, N-(6-chloroimidazo[1,2-a]pyridin-2-yl)-4-[1,1-dimethyl-3-(1H-tetrazol-5-yl)propyl]benzamide]
248 to 250 °C | CC(C)(C#N)c1ccc(C(=O)Nc2cn3cc(Cl)ccc3n2)cc1 [Example 38, N-(6-chloroimidazo[1,2-a]pyridin-2-yl)-4-(1-cyano-1-methylethyl)benzamide]
233 to 234 °C | CC(C)(CCC#N)c1ccc(C(=O)Nc2cn3cc(-n4ccnc4)ccc3n2)cc1 [Example 45, 4-(3-cyano-1,1-dimethylpropyl)-N-[6-(1H-imidazol-1-yl)imidazo[1,2-a]pyridin-2-yl]benzamide]
266 to 267 °C | CC(C)(CCc1nnn[nH]1)c1ccc(C(=O)Nc2cn3cc(-n4ccnc4)ccc3n2)cc1 [Example 46, 4-[1,1-dimethyl-3-(1H-tetrazol-5-yl)propyl]-N-[6-(1H-imidazol-1-yl)imidazo[1,2-a]pyridin-2-yl]benzamide]
230 to 231 °C | CC(C)(C)c1ccc(C(=O)Nc2cn3ccccc3n2)cc1 [Example 54, 4-tert-butyl-N-(imidazo[1,2-a]pyridin-2-yl)benzamide]
293 to 294 °C | CC(C)(C)c1ccc(C(=O)Nc2cn3cc(-c4ccncc4)ccc3n2)cc1 [Example 59, 4-tert-butyl-N-[6-(pyridin-4-yl)imidazo[1,2-a]pyridin-2-yl]benzamide]
258 to 259 °C | CC(C)(C)c1ccc(C(=O)Nc2cn3cc(-c4ccoc4)ccc3n2)cc1 [Example 61, 4-tert-butyl-N-[6-(3-furyl)imidazo[1,2-a]pyridin-2-yl]benzamide]
279 to 280 °C | CC(C)(C)c1ccc(C(=O)Nc2cn3cc(-c4ccc[nH]4)ccc3n2)cc1 [Example 62]
274 to 275 °C | CC(C)(C)c1ccc(C(=O)Nc2cn3cc(-n4cccc4)ccc3n2)cc1 [Example 64, 4-tert-butyl-N-[6-(1H-pyrrol-1-yl)-imidazo[1,2-a]pyridin-2-yl]benzamide]
